These results are taken from patent US20100190225A1, “D-PSICOSE PRODUCTION METHOD BY D-PSICOSE EPIMERASE” (CJ CHEILJEDANG CORP., priority 2005, published 2010).

Like-named read-outs stand apart in the source and are kept apart here.

Series [1] concerns the target T1, psicose 3-epimerase (Agrobacterium fabrum, UniProt A9CH28).
T1 construct: made in house; host or cells: Escherichia coli BL21(DE3)
T1 sequence (A9CH28 with tags, fused parts or gaps): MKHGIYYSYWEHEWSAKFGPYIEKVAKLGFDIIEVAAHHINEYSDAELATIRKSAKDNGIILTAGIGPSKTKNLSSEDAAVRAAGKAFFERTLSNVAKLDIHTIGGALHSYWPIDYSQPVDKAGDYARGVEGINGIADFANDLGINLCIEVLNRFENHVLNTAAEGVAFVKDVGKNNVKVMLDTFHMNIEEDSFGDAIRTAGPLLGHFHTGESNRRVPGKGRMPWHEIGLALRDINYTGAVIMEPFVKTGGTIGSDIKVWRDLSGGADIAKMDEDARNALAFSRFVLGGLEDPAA
The format is biochemical. Conditions: for Relative activity (%): 1 mM metal ion added or EDTA treatment, 1.0% D-fructose, pH 7.5, 50° C., 20 minutes, None = 100; for effect of metal ion on enzyme activity: 1 mM metal ion, in words.
Procedure: The enzyme activity was measured by using D-fructose as a substrate. For the measurement of the enzyme activity, psicose 3-epimerase was allowed to react with D-fructose in a 50 mM PIPES buffer solution containing 1.0% of D-fructose, at pH 7.5 and at 50° C. for 20 minutes, and then the reaction solution was heated at 100° C. for 5 minutes to terminate the reaction. […] For the purpose of easy comparison of the enzyme activity, one unit of psicose 3-epimerase is defined as the amount of the psicose 3-epimerase needed to produce 1 mole of D-psicose per one minute at pH 7.5 and at 50° C.
In order to investigate the effect of the addition of a metal ion, the enzyme activity of the psicose 3-epimerase was measured after treating the psicose 3-epimerase with EDTA, or after adding 1 mM each of the metal ions indicated in Table 1 below, to the psicose 3-epimerase. Reaction of the psicose 3-epimerase was performed in a 50 mM PIPES buffer solution containing 0.04 units/ml of the psicose 3-epimerase and 1.0% by weight of D-fructose at pH 7.5 and at 50° C. for 20 minutes, and then the reaction solution was heated at 100° C. for 5 minutes to terminate the reaction. Then, the enzyme activity of the psicose 3-epimerase was measured.

For series [2], the target named is T1, psicose 3-epimerase. Kind of series: Substrate specificity of psicose 3-epimerase. The format is biochemical. Conditions: for Relative activity (%) No metal ion added / Relative activity (%) Mn^2+ added: 10 mM monosaccharide as substrate, pH 7.5, 50° C., 20 minutes. As to the method: In the current Experimental Example, MALDI-TOF-MS was used for the measurement of the molecular weight of psicose 3-epimerase, and cinnamic acid was used as a matrix. The enzyme activity was measured by using D-fructose as a substrate. For the measurement of the enzyme activity, psicose 3-epimerase was allowed to react with D-fructose in a 50 mM PIPES buffer solution containing 1.0% of D-fructose, at pH 7.5 and at 50° C. for 20 minutes, and then the reaction solution was heated at 100° C. for 5 minutes to terminate the reaction. The PIPES buffer solution containing D-fructose was prepared by dissolving D-fructose in PIPES buffer solution at pH 7 to 8 to a concentration of 60 to 70% by weight, and the PIPES buffer solution containing D-fructose was continuously added to a bioreactor maintained at 40 to 60° C. For the purpose of easy comparison of the enzyme activity, one unit of psicose 3-epimerase is defined as the amount of the psicose 3-epimerase needed to produce […] of D-psicose per one minute at pH 7.5 and at 50° C.
The concentrations of D-fructose, D-psicose, D-sorbose, D-tagatose, D-xylulose and D-ribulose were measured using a high pressure liquid chromatography system with a BP-100 calcium ion […] column and an RI detector. The column was conditioned to allow a flow of distilled water at a rate of 0.5 ml/min at 80° C.
Reaction of the psicose 3-epimerase was performed in a 50 mM PIPES buffer solution containing 0.04 units/ml of the psicose 3-epimerase and 10 mM each individually of the monosaccharides indicated in Table 2 below, at pH 7.5 and at 50° C. for 20 minutes, and then each of the reaction solutions were heated at 100° C. for 5 minutes to terminate the reaction. Then, the enzyme activity of the psicose 3-epimerase of each reaction solution was measured.

The subject of another series is lipogenic enzymes. To be noted: dietary, in words; cited from earlier work.
For series [3] the following is noted: in words; cited from earlier work.
Series [4] in a line: Activity of psicose 3-epimerase according to pH and temperature changes. In kind it is biochemical. The method, then:
In Example 5, the psicose 3-epimerase was reacted with D-fructose at various pH values and temperatures, and the enzyme activities obtained at the various pH values and temperatures were compared. In order to investigate the pH effect, the reaction of the psicose 3-epimerase was performed in a 50 mM PIPES buffer solution containing 0.04 units of psicose 3-epimerase/ml and 1.0% of D-fructose at pH values ranging from 6.5 to 7.5, and the same reaction was performed in a 50 mM EPPS buffer solution containing 0.04 units of psicose 3-epimerase/ml and 1.0% of D-fructose at pH values ranging from 7.5 to 8.5. Here, the respective reactions were performed at 50° C. when metal ions were not added, and at 60° C. when Mn ions were added, respectively for 20 minutes. Then, the reactions were terminated by heating the reaction solutions at 100° C. for 5 minutes, and the enzyme activities were measured. The results are illustrated in FIG. 1A.
In order to investigate the temperature effect, the reaction was performed in a 50 mM PIPES buffer solution containing 0.04 units of psicose 3-epimerase/ml and 1.0% of D-fructose at temperatures ranging from 30° C. to 70° C. for 20 minutes, at pH 7.5 when metal ions were not added, and at pH 7.0 when Mn ions were added. The reactions were terminated by heating the reaction solution at 100° C. for 5 minutes, and the enzyme activities were measured. The results are illustrated in FIG. 1B.

A short description of series [5]: Equilibrium between D-psicose and D-fructose achieved by psicose 3-epimerase. In kind it is biochemical. The method, then:
In Example 6, the reaction of the psicose 3-epimerase was performed in a 50 mM PIPES buffer solution containing 0.04 units of psicose 3-epimerase/ml, 1 mM of Mn^2+ ions, and 0.1% of D-psicose and D-fructose together, at pH 7.0 and at temperatures ranging from 30° C. to 60° C. for 24 hours to allow the reaction to proceed sufficiently, in order to determine the equilibrium between D-psicose and D-fructose. Then, the reactions were terminated by heating the reaction solution at 100° C. for 5 minutes, and the enzyme activity was measured.
As a result, the reaction was started with 5 initial ratios of D-psicose to D-fructose, of 0:100, 25:75, 50:50, 75:25, and 100:0, and the final ratios of D-psicose to D-fructose were determined after 24 hours of the reaction, as shown in FIG. 2. Referring to FIG. 2, the ratio of D-psicose to D-fructose was 32:68 at 30° C., while the same ratio was 37:63 at 60° C.

A short description of series [6]: D-psicose production by free psicose 3-epimerase. The format is biochemical. To be noted: 700 g/L D-fructose; for D-Psicose: 14 units/ml, 1 mM Mn^2+, pH 7.0, 60° C. The method, then: In order to produce D-psicose at high concentrations, the reaction was performed in a 50 mM PIPES buffer solution containing 14 units of psicose 3-epimerase/ml, 1 mM of Mn^2+ ions, and 700 g/L of D-fructose, at pH 7.0 and at 60° C. for various reaction times. Then, the reaction was terminated by heating the reaction solution at 100° C. for 5 minutes, and the enzyme activity was measured.

As for `[Al+3]` [Al^3+], at psicose 3-epimerase [1], the “Relative activity (%)” value was determined as 100%.
With `O=C(CO)[C@@H](O)[C@H](O)[C@H](O)COP(=O)(O)O` [D-Fructose-6-phosphate], on psicose 3-epimerase [2], the “Relative activity (%) No metal ion added” value came out at 0.0% and the “Relative activity (%) Mn^2+ added” value came to 0.0%.
Take `[Ba+2]` [Ba^2+]: the “Relative activity (%)” value at psicose 3-epimerase [1] amounted to 95.6%.
As for `[Co+2]` [Co^2+], at psicose 3-epimerase [1], the “Relative activity (%)” value is given as 268% and the “effect of metal ion on enzyme activity” value is “enhanced the enzyme activity”.
In the case of `O=C(CO)[C@@H](O)[C@H](O)CO` [D-Xylulose], on psicose 3-epimerase [2], the “Relative activity (%) No metal ion added” value was 5.8% and the “Relative activity (%) Mn^2+ added” value is 12.4%.
Taken in the same sequence, the figures for `O=C(CO)[C@@H](O)[C@H](O)[C@H](O)CO` [D-Fructose] were 37.9% and 139%.
As to `[Fe+3]` [Fe^3+], the “Relative activity (%)” value on psicose 3-epimerase [1] is listed as 121%; on psicose 3-epimerase [1] (listed as Fe^2+), 139%.
Turning to `O=C(O)CN(CCN(CC(=O)O)CC(=O)O)CC(=O)O` [EDTA], the “Relative activity (%)” value at psicose 3-epimerase [1] is reported as 20.0%.
Take `O=C(CO)[C@H](O)[C@H](O)COP(=O)(O)O` [D-Ribulose-5-phosphate]: on psicose 3-epimerase [2], the “Relative activity (%) No metal ion added” value was found to be 0.0% and the “Relative activity (%) Mn^2+ added” value stood at 0.0%.
As to `O=C(CO)[C@H](O)[C@H](O)[C@H](O)CO` [D-Psicose], the “effect on activity of lipogenic enzymes” value with lipogenic enzymes was “suppressing the activity of lipogenic enzymes”. Moreover, the “metabolism in the human body” value in series [3] is “almost non-metabolizable”. At psicose 3-epimerase [2], the “Relative activity (%) No metal ion added” value was found to be 100% and the “Relative activity (%) Mn^2+ added” value was found to be 274%. On psicose 3-epimerase [2] (D-psicose compared with D-tagatose, in words), the “affinity of the psicose 3-epimerase for substrate” value is given as “higher affinity”.
Take `O=C(CO)[C@@H](O)[C@@H](O)[C@H](O)CO` [D-Tagatose]: on psicose 3-epimerase [2], the “Relative activity (%) No metal ion added” value is given as 65.5% and the “Relative activity (%) Mn^2+ added” value amounted to 92.3%.
In the case of `[Mo+2]` [Mo^2+], at psicose 3-epimerase [1], the “Relative activity (%)” value came out at 93.3%.
As to `O=C(CO)[C@H](O)[C@H](O)CO` [D-Ribulose], at psicose 3-epimerase [2], the “Relative activity (%) No metal ion added” value came to 10.2% and the “Relative activity (%) Mn^2+ added” value was 15.4%.
In the case of `[Zn+2]` [Zn^2+], at psicose 3-epimerase [1], the “Relative activity (%)” value was found to be 4.4% and the “effect of metal ion on enzyme activity” value is reported as “suppressed the enzyme activity”.
For the molecule `O=C(CO)[C@H](O)[C@@H](O)[C@H](O)CO` [D-Sorbose], on psicose 3-epimerase [2], the “Relative activity (%) No metal ion added” value stood at 0.8% and the “Relative activity (%) Mn^2+ added” value turned out to be 1.7%.
As to `[Mg+2]` [Mg^2+], the “Relative activity (%)” value at psicose 3-epimerase [1] is 100%.
Take `[Ca+2]` [Ca^2+]: the “Relative activity (%)” value on psicose 3-epimerase [1] was 64.4%.
Consider `[Cu+2]` [Cu^2+], for which, on psicose 3-epimerase [1], the “Relative activity (%)” value is on record as 2.2% and the “effect of metal ion on enzyme activity” value is “suppressed the enzyme activity”.
Taken in the same sequence, the figures for `[Mn+2]` [Mn^2+] were 274% and “enhanced the enzyme activity”.

B1: psicose 3-epimerase: enzyme (SEQ ID NO:1) from Agrobacterium tumefaciens ATCC33970 that converts D-fructose to D-psicose; monomer, metalloenzyme (protein, listed as Agrobacterium tumefaciens)
chain: T1 sequence (A9CH28 with tags, fused parts or gaps)
For the molecule B1, the figures for the “optimal pH” value in series [4] (Mn^2+ ions added) and in series [4] (metal ions not added) were 7.0 and 7.5, respectively. The optimal temperature in series [4] (Mn^2+ ions added) was 60 °C; in series [4] (metal ions not added), 50 °C. Besides, the “superiority to the yield achievable by conventional methods of producing D-psicose” value in series [5] was “approximately 20%”. Further, the “D-Psicose” value came to 0 g/L in series [6] (reaction time 0 min); 93 g/L in series [6] (reaction time 10 min); 155 g/L in series [6] (reaction time 30 min); 180 g/L in series [6] (reaction time 60 min); 211 g/L in series [6] (reaction time 120 min); 210 g/L in series [6] (reaction time 180 min). Further, the “D-Psicose” value is on record as 210 g/L in series [6] (reaction time 240 min) and 209 g/L in series [6] (reaction time 300 min). In series [6] (reaction time 120 minutes), this molecule registered a D-psicose conversion yield of 30.2%.
